Values quoted from earlier work, collected in PMC5131319, “Occurrence, temporal trends, and half-lives of perfluoroalkyl acids (PFAAs) in occupational workers in China” (Scientific Reports, 2016).

Details: humans; cited from earlier work

In the case of `O=S(=O)(O)C(F)(F)C(F)(F)C(F)(F)C(F)(F)F` [PFBS, perfluorobutanesulfonate], the “Half-life based on serum concentrations” value is listed as 26 days.
